Test results from publication PMC6715247 (PLoS Neglected Tropical Diseases, 2019).
Entries after “also recorded” stand apart in the source; their conditions may differ. Read-outs that look alike come from different tables or passages of the source.

Columns and labels:
rEhAPSK = rEhAPSK (Entamoeba histolytica, UniProt C4LUW9); experiment: 96-well plate-based in vitro APSK activity assay (coupling assay, NADH decrease); format: biochemical; conditions: for Inhibition of rEhAPSK activity: 10 μM compound, 1% DMSO
Protocol: (§1) A coupling assay to measure APSK activity was performed as described except a 96-well plate was used. Briefly, each well contained 100 μL reaction mixture, which consisted of 90 μL coupling solution and 10 μL of either compound solution (see below) or 10% DMSO. […] The coupling solution was 100 mM Tris/HCl (pH 8.0), 1 mM MgCl2, 1 mM KCl, 5 mM Mg2ATP, 1 mM NADH, 1 mM PEP, 1 U NP1, 3.5 U PK, 5.0 U LDH, and APSK (≤3 μL). […] As controls, in place of purified APSK solution (rEhAPSK or rHsAPSK), 3 μL of a blank [50 mM Tris/HCl buffer (pH 8.0)], a solvent (elution buffer), a mock (rEhSF2), or denatured APSK suspensions obtained by heat-treatment, were added to the coupling solution. The activity of each sample was calculated after removing the baseline value of the blank control.
(§2) For the inhibition assay, 2 μL of each stock solution, which were distributed in a 96-well plate, were transferred to a new plate to make a replicate. After adding 18 μL deionized water to each well and mixing, 10 μL of each diluted solution (100 μM compound solution) was again transferred into a new 96-well plate to make a replicate. Then 90 μL of the coupling solution prepared above was dispensed into each well containing the previously added 10 μL of 100 μM compound solution. As a solvent control, 10% DMSO solution (vol/vol-deionized water) was used in place of compound solution. The final concentrations of each compound and DMSO in a well were 10 μM and 1% (vol/vol), respectively. The assays were performed independently three times, and data are shown as the mean with SD.
One millimolar stock solutions used were either thawed in a replicate (96-well plate) prepared in [18] […] Subsequently, 3.4 μL of the 1 mM and each diluted stock solution were dispensed into wells of a 96-well culture plate, containing 30.6 μL deionized water and mixed well by pipetting. Ten microliters of all resulting solutions were then dispensed into wells of a 96-well plate to make triplicates and then used as described for the above inhibition assay. 10% DMSO solution was used as an inhibitor-free control. Note that the final DMSO concentration in any well was 1% (vol/vol).
(§3) In all assays, prepared mixtures in a plate were mixed on a vibrating table equipped with either an EnVision or ARVO plate reader (PerkinElmer) before starting the reaction.

[1] = biological target: T1, rHsAPSK (recombinant APSK domain of HsPAPSS1) (Homo sapiens, UniProt O43252); experiment: as above; format: biochemical; conditions: 10 μM compound, 1% DMSO
T1 construct: APSK domains of HsPAPSS1 (Ala^25—Pro^227) and -2 (Ser^15—Pro^217); His tag (pCold-I vector); made in house; host or cells: E. coli BL21(DE3)
T1 sequence (O43252 25-227): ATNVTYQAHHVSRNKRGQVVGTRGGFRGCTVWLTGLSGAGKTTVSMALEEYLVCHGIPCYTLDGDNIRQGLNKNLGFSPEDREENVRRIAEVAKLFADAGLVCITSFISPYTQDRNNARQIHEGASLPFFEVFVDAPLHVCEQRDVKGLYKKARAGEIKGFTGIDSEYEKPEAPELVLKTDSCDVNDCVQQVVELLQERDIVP
Protocol: as §1, §2, §3

[2] = system: E. histolytica trophozoite; experiment: E. histolytica trophozoite proliferation assay (flow cytometry); format: cell-based; conditions: Entamoeba histolytica, read-out: Trophozoite proliferation IC50
Protocol: (§4) E. histolytica trophozoite proliferation and E. invadens cyst formation assays were performed essentially as described in [18] except that in addition to 0–72 and 48–72 h cyst formation assays, 0–96 and 0–120 h, and 48–96 and 48–120 h assays were also performed.

[3] = system: E. invadens cyst formation; experiment: E. invadens cyst formation (encystation) assay (flow cytometry); format: cell-based, Entamoeba invadens; conditions: for IC50: Entamoeba invadens, read-out: Cyst formation IC50; for Number of cysts formed at 72 h: compound added at 48 h post-induction (48–72 h)
Protocol: as §4

[4] = WST-1-based cytotoxicity assay; conditions: human
Protocol: (§5) Human foreskin fibroblast (HFF) cells (purchased from ATCC) were routinely maintained in DMEM supplemented with 10% fetal bovine serum, 100 units/ml penicillin, […] and 1% GlutaMAX™-I (Thermo Fisher Scientific, Waltham, MA). A WST-1-based cytotoxicity assay was performed as previously described. In detail, HFF cells were plated at 1.0×10^4 cells/100 μL medium in each well of a 96-well culture plate, and incubated overnight at 37°C in a 5% CO2 atmosphere to allow cells to adhere to the wells. […] Numbers of viable cells were then assessed using the Premix WST-1 Cell Proliferation Assay System (Takara). […] DMSO was added at 1% as a negative control whereas ionomycin was added at 30 μM as a positive control. As a blank, the above culture medium was used in place of the solutions added.

[5] = system: Human foreskin fibroblast (HFF) cells; experiment: WST-1-based cytotoxicity assay; conditions: for Number of viable HFF cells relative to 1% DMSO control (set as 100%): 10 μM
Protocol: as §5

[6] = system: sulfolipids synthesized in E. histolytica trophozoites; experiment: Metabolic labeling by [35S]-labeled sulfate, sulfolipid synthesis; format: cell-based, Entamoeba histolytica; conditions: 6 h treatment; A-D-11, A-H-11 6.25-100 μM, E-H-05 0.5-8 μM
Protocol: Metabolic labeling of E. histolytica trophozoites by [^35S]-labeled sulfate was performed essentially as described previously with slight modification. […] Each 10 mM stock solution (in DMSO) of the three commercially sourced compounds was serially diluted by 2-fold decrements with DMSO. The resulting diluted solutions were then added to 0.75 ml cell suspension in BI-S-33 medium at 1/100 (vol/vol). […] Note that DMSO was used as a solvent control at 1%, which was the DMSO concentration in all samples analyzed. [^35S]-labeled sulfate (45 μCi) was added 4 h after the start of treatments and labeled cells were harvested at 6 h. […] Each spot on the TLC plates was quantified using a Fuji imaging analyzer and Multi Gauge 2.2 software (FLA-7000; Fujifilm, Japan). The total cell protein was estimated using a Pierce BCA protein assay kit (Thermo Scientific, Rockford, IL, USA).

[7] = system: E. histolytica trophozoites; experiment: Morphological analysis by phase contrast microscopy; format: cell-based, Entamoeba histolytica; conditions: 6 h treatment
Description: Cell morphology was then observed by phase contrast microscopy using a Primovert microscope (Carl Zeiss, Germany) with a COMS camera (E3CMOS12000KPA, ToupTek, China). […] Cell images were captured using ToupView software (ToupTek).

[8] = system: E. histolytica trophozoite; parameters: method as in PMID 30087858; conditions: ref [18], cited from earlier work; for Effect on trophozoite proliferation: 10 μM
[9] = system: E. invadens cyst formation; parameters: method as in PMID 30087858; conditions: ref [18], cited from earlier work; for Effect on cyst formation: 10 μM
recombinant EhTrxR = system: recombinant EhTrxR; parameters: method as in PMID 22610278, PMID 26876147; conditions: ref [19], [59]; cited from earlier work

Chain of rEhAPSK (C4LUW9 entry or part of it): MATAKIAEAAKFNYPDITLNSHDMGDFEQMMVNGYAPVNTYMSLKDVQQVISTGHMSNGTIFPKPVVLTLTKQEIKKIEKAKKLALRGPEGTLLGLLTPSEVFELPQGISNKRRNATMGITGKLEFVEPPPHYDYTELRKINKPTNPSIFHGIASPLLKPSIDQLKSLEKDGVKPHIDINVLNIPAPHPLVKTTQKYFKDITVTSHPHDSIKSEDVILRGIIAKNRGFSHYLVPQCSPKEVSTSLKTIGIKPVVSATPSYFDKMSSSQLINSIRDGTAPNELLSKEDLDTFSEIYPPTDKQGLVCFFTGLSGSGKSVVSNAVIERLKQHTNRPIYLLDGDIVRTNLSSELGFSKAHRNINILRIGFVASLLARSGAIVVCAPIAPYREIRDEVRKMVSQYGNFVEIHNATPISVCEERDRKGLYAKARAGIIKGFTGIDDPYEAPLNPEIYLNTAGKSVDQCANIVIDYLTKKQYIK

Compound	Inhibition of rEhAPSK activity (rEhAPSK)	Inhibition of rHsAPSK activity [1]	Number of cysts formed at 72 h [3]	Number of viable HFF cells relative to 1% DMSO control (set as 100%) ([5]; 48 h)	Amount of sulfolipids synthesized [6]	Concentration range that produced trophozoite morphology similar to DMSO control [7]	Effect on trophozoite proliferation [8]	Effect on cyst formation [9]	also measured
O=C(Nc1nc(-c2ccccn2)cs1)c1cncn1-c1ccccc1 [A-H-11, 3-phenyl-N-[4-(2-pyridyl)thiazol-2-yl]-imidazole-4-carboxamide]	reproducibly inhibited rEhAPSK activity	none showed any inhibitory activity against HsAPSK	neither A-D-11 nor A-H-11 affected the number of cysts formed at 72 h	did not affect numbers of viable cells; also recorded: did not influence numbers of viable HFF cells	dose-dependently reduced the amount of sulfolipids synthesized	6.25–100 μM	negative effects	negative effects	IC50 (rEhAPSK; rEhAPSK, average ± SD, more than three independent experiments, read-out: APSK activity IC50): 6.75 ± 1.35 µM; IC50 ([2]; average ± SD, three independent experiments): 4 ± 1.05 µM; IC50 ([3]; 0–72 h, average ± SD, three independent experiments): 2.35 ± 0.132 µM; IC50 at 48 h ([4]; human foreskin fibroblast (HFF) cells): > 100 µM; Number of viable HFF cells relative to DMSO control ([5]; 100 μM, 48 h): did not influence numbers of viable HFF cells
auranofin [E-H-05, reference compound]	reproducibly inhibited rEhAPSK activity	none showed any inhibitory activity against HsAPSK	did not affected the number of cyst formed at 72 h	< 10%	dose-dependently reduced the amount of sulfolipids synthesized		negative effects	negative effects	IC50 ([5]; read-out: Cytotoxicity (HFF) IC50, 48 h exposure, WST-1): 4 ± 1.4 µM; IC50 ([8]; average ± SD, read-out: Trophozoite proliferation IC50): 0.65 ± 0.18 µM; IC50 ([9]; average ± SD): 1.73 ± 0.7 µM; IC50 (recombinant EhTrxR): 0.4 µM
O=C(COc1cccc(F)c1)Nc1nc(-c2ccccn2)cs1 [A-D-11, 2-(3-fluorophenoxy)-N-[4-(2-pyridyl)thiazol-2-yl]-acetamide]	reproducibly inhibited rEhAPSK activity	none showed any inhibitory activity against HsAPSK	neither A-D-11 nor A-H-11 affected the number of cysts formed at 72 h		dose-dependently reduced the amount of sulfolipids synthesized	6.25–100 μM		negative effects	IC50 (rEhAPSK): 6.3 ± 1.53 µM; IC50 (rEhAPSK; read-out: APSK activity IC50, rEhAPSK, average ± SD, more than three independent experiments): < 10 µM; IC50 [2]: 7.5 ± 2.29 µM; IC50 [3]: 2.27 ± 0.252 µM; IC50 at 48 h [4]: > 100 µM
